# “Also recorded” adds a separate entry of the source.
# What was measured:
# TG2576 mice [1] = assay: Plasma glutamate and glutamine by LC-MS in TG2576 mice on TAG-supplemented diet (Example 1B); details: mouse, in vivo
# TG2576 mice [2] = assay: UDP N-acetyl glucosamine in brain tissue of TG2576 mice on TAG-supplemented diet, LC-MS/MS (Example 2B); assay type: in vivo, mouse
# Protocol: After 6 weeks brains were excised and bisected in the sagittal plane. The hemi-brains were stored frozen (−80° C.) then thawed, weighed and homogenized in 10 volumes of MeOH/MeCN/H2O (50%/30%/20%, v/v/v). Homogenates were centrifuged at 5000 rpm for 30 min. The supernatant was passed through 1 kDa MW centrifugal filters then evaporated and resuspended in the HPLC mobile phase. UDP N-acetyl glucosamine was run on a mixed-mode hydrophilic HPLC column (150 mm×4.6 mm id, Primesep N, by SIELC), with guard under a linear gradient of 80% acetonitrile and 10 mM ammonium formate pH 4.3 to 10% MeCN and 10 mM ammonium formate over 9 min, then return to starting conditions over 1 min. UDP N-acetyl glucosamine in brain extracts was quantified against commercial standard UDP N-acetyl glucosamine detected by mass spectrometry (MS-MS) in negative ion mode, scanning for m/z 606 and identification of major collision fragments m/z 385 and 403. UDP levels were corrected for brain mass. The effect of diet was calculated using 1-tailed t-test.
# TG2576 mice [3] = assay: Morris water maze, spatial memory in TG2576 mice (Example 3B); assay type: in vivo, mouse; details: TAG diet
# Source text: The Morris water maze (MWM) has been used to measure spatial memory deficit in TG2576 mice. Mice are placed in a tub of water and containing a submerged platform. The amount of time required for a mouse to swim to the platform is referred to as the maze “escape time”. There are two testing stages in the water maze: 1. VISIBLE STAGE, in which the position of the platform is made visible by a marker pole attached to the platform, and 2. HIDDEN STAGE where the marker pole is removed and the water made opaque by the addition of white paint. Compared to wild type siblings, older TG2576 mice show increased latency to escape time.
# The maze consisted of a 715 mm diameter tub filled to a depth of 70 mm. For VISIBLE STAGE testing, mice were placed in the water maze and the time they took to reach the platform was recorded with a stop watch. This testing was carried out 8 times per day for 3 days, during which the platform was moved to various positions around the maze. The walls of the maze were inscribed with 4 distinct shapes that were provided as spatial cues for learning. The HIDDEN STAGE testing was carried out for 7 days, 4 times per day. The position of the platform was fixed, but mice were placed in the maze at different positions for each test.
# […].
# As subjects learned to navigate and find the hidden platform, their escape time was reduced. […]
substance,measurement,setting,value
tetra-acetyl glucosamine [TAG],Plasma concentration of glutamate,TG2576 mice [1],1.05 ± 0.094 RU/ml
same,Plasma concentration of glutamine,TG2576 mice [1],6.77 ± 1.05 RU/ml
same,Plasma glutamate level compared to control mice (in words),TG2576 mice [1],significantly lower; also recorded: reduced
same,Plasma glutamine level compared to control mice (in words),TG2576 mice [1],trend of increased
same,UDP N-acetyl glucosamine in brain,"TG2576 mice [2]; TG2576 mice, 0.45% (w/w) TAG diet for 6 weeks, n = 5, p=0.037 vs control diet",28.3 ± 2.13 ng/mg brain fwt
same,Increase in levels of UDP N-acetyl glucosamine in brain vs control diet,"TG2576 mice [2]; TG2576 mice, 6 weeks of TAG-supplemented diet",40%
same,UDP N-acetyl glucosamine in brain tissue compared to control (in words),TG2576 mice [2]; mice models of AD fed a diet supplemented with TAG,increased
same,Effect on latency to escape time / spatial working memory in Morris water maze (in words),TG2576 mice [3]; after 7 days,decreased; also recorded: significantly improved
same,Mean escape time ± SE,"TG2576 mice [3]; water maze after 7 days, n = 8, in s (unit assumed)",9.31 ± 0.80
